PubChem BioAssay (NCI)
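In this assay, cells in 96-well plates receive the compound at five concentrations for 48 hours. Endpoints are linearly interpolated between the surrounding concentrations. Here, GI50 denotes the concentration required for 50% inhibition of growth. TGI is the concentration that stops growth completely.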

What was measured:
Experiment in all cases: NCI-60 cell line screen, 48 h
MOLT-4 leukemia = system: MOLT-4 leukemia
RPMI-8226 leukemia = system: RPMI-8226 leukemia
SF-268 CNS = system: SF-268 CNS
CAKI-1 renal = system: CAKI-1 renal
MALME-3M melanoma = system: MALME-3M melanoma
HCT-116 colon = system: HCT-116 colon
SF-539 CNS = system: SF-539 CNS
OVCAR-5 ovarian = system: OVCAR-5 ovarian
UO-31 renal = system: UO-31 renal
NCI-H226 lung = system: NCI-H226 lung

Which TGI (MOLT-4 leukemia) does the source give for `CCOC(=O)C1C(=O)C(=O)N2CCc3c([nH]c4ccccc34)C12` (stereo not drawn) here?
The TGI was greater than 100 µM.

What about the TGI (RPMI-8226 leukemia) of the same molecule?
The TGI was greater than 100 µM.

What about the TGI (SF-268 CNS) of the same molecule?
The TGI was greater than 100 µM.

What about the TGI (CAKI-1 renal) of the same molecule?
The TGI was greater than 100 µM.

And the TGI (MALME-3M melanoma)?
The TGI was greater than 100 µM.

And the TGI (HCT-116 colon)?
The TGI was greater than 100 µM.

And the TGI (SF-539 CNS)?
The TGI was greater than 100 µM.

And the TGI (OVCAR-5 ovarian)?
Its TGI is greater than 100 µM.

And the TGI (UO-31 renal)?
The TGI was greater than 100 µM.

For `O=NNc1nc(-c2ccccn2)nc2ccccc12`, which TGI (MOLT-4 leukemia) is on record?
Its TGI is greater than 100 µM.

What about the TGI (NCI-H226 lung) of the same molecule?
Its TGI is 62.5 µM.

And the TGI (SF-268 CNS)?
The TGI was greater than 100 µM.

What about the TGI (CAKI-1 renal) of the same molecule?
Its TGI is greater than 100 µM.

And the TGI (MALME-3M melanoma)?
Its TGI is 19.6 µM.

And the TGI (HCT-116 colon)?
Its TGI is 16.5 µM.

What about the TGI (SF-539 CNS) of the same molecule?
Its TGI is greater than 100 µM.

What about the TGI (OVCAR-5 ovarian) of the same molecule?
Its TGI is greater than 100 µM.

And the TGI (UO-31 renal)?
Its TGI is greater than 100 µM.

`CC(=O)Nc1ccc(C(=O)NN2C(=O)CSC2c2ccccc2)cc1` (stereo not drawn) was tested. Which TGI (MOLT-4 leukemia) did it give?
The TGI was greater than 100 µM.

And the TGI (RPMI-8226 leukemia)?
The TGI was greater than 100 µM.

And the TGI (NCI-H226 lung)?
The TGI was greater than 100 µM.

What about the TGI (SF-268 CNS) of the same molecule?
The TGI was greater than 100 µM.

And the TGI (HCT-116 colon)?
The TGI was greater than 100 µM.

And the TGI (SF-539 CNS)?
Its TGI is greater than 100 µM.

And the TGI (OVCAR-5 ovarian)?
The TGI was greater than 100 µM.

What about the TGI (UO-31 renal) of the same molecule?
Its TGI is greater than 100 µM.

How did the TGI (MOLT-4 leukemia) turn out when `CN1OC(CO)CC12C1CC3CC(C1)CC2C3` (stereo not drawn) was run?
The TGI was greater than 100 µM.

What about the TGI (RPMI-8226 leukemia) of the same molecule?
Its TGI is greater than 100 µM.

And the TGI (SF-268 CNS)?
The TGI was greater than 100 µM.

What about the TGI (CAKI-1 renal) of the same molecule?
The TGI was greater than 100 µM.

What about the TGI (MALME-3M melanoma) of the same molecule?
Its TGI is greater than 100 µM.

And the TGI (HCT-116 colon)?
Its TGI is greater than 100 µM.

What about the TGI (SF-539 CNS) of the same molecule?
The TGI was greater than 100 µM.

And the TGI (OVCAR-5 ovarian)?
The TGI was greater than 100 µM.

What about the TGI (UO-31 renal) of the same molecule?
The TGI was greater than 100 µM.

What does the source list for `CCn1c(SC)nnc1-c1cc2c([nH]c3ccccc32)c(-c2cccc(O)c2)n1`?
GI50 (MOLT-4 leukemia): 2.05 µM; TGI (MOLT-4 leukemia): > 100 µM; GI50 (RPMI-8226 leukemia): 1.58 µM; TGI (RPMI-8226 leukemia): 10.2 µM; GI50 (NCI-H226 lung): 1.91 µM; TGI (NCI-H226 lung): 4.9 µM; GI50 (SF-268 CNS): 3.42 µM; TGI (SF-268 CNS): 25.5 µM; GI50 (MALME-3M melanoma): 1.37 µM; TGI (MALME-3M melanoma): 9.58 µM; GI50 (HCT-116 colon): 2.5 µM; TGI (HCT-116 colon): 14 µM; GI50 (SF-539 CNS): 1.46 µM; TGI (SF-539 CNS): 3.74 µM; GI50 (OVCAR-5 ovarian): 10 µM; TGI (OVCAR-5 ovarian): 43.1 µM; GI50 (UO-31 renal): 1.94 µM; TGI (UO-31 renal): 15.8 µM

With `NC(=O)NC(=O)C1CCC(=O)N1S(=O)(=O)c1ccc(Cl)cc1` (stereo not drawn) as the molecule, how does the TGI (MOLT-4 leukemia) read?
Its TGI is greater than 100 µM.

What about the TGI (RPMI-8226 leukemia) of the same molecule?
The TGI was greater than 100 µM.

What about the TGI (NCI-H226 lung) of the same molecule?
Its TGI is greater than 100 µM.

And the TGI (SF-268 CNS)?
The TGI was greater than 100 µM.

What about the TGI (CAKI-1 renal) of the same molecule?
The TGI was greater than 100 µM.

And the TGI (MALME-3M melanoma)?
Its TGI is greater than 100 µM.

What about the TGI (HCT-116 colon) of the same molecule?
Its TGI is greater than 100 µM.

And the TGI (SF-539 CNS)?
The TGI was greater than 100 µM.

And the TGI (UO-31 renal)?
Its TGI is greater than 100 µM.

Which results are given for `N#Cc1c(N/N=C/c2c(Cl)cccc2Cl)nc(N)nc1N1CCCC1`?
GI50 (MOLT-4 leukemia): 2.88 µM; TGI (MOLT-4 leukemia): 18.3 µM; GI50 (RPMI-8226 leukemia): 2.56 µM; TGI (RPMI-8226 leukemia): 8.21 µM; GI50 (NCI-H226 lung): 11.8 µM; TGI (NCI-H226 lung): > 100 µM; GI50 (SF-268 CNS): > 100 µM; TGI (SF-268 CNS): > 100 µM; GI50 (CAKI-1 renal): 1.29 µM; TGI (CAKI-1 renal): > 100 µM; GI50 (HCT-116 colon): 1.01 µM; TGI (HCT-116 colon): 16.8 µM; GI50 (SF-539 CNS): 1.77 µM; TGI (SF-539 CNS): 5.58 µM; GI50 (OVCAR-5 ovarian): 8.31 µM; TGI (OVCAR-5 ovarian): > 100 µM; GI50 (UO-31 renal): 5.36 µM; TGI (UO-31 renal): > 100 µM

`O=[N+]([O-])C1(CO)COC(CCc2ccccc2)OC1` (stereo not drawn) was tested. Which TGI (MOLT-4 leukemia) did it give?
The TGI was greater than 100 µM.

And the TGI (MALME-3M melanoma)?
The TGI was greater than 100 µM.

And the TGI (HCT-116 colon)?
Its TGI is greater than 100 µM.

What about the TGI (SF-539 CNS) of the same molecule?
The TGI was greater than 100 µM.

And the TGI (OVCAR-5 ovarian)?
Its TGI is greater than 100 µM.

What about the TGI (UO-31 renal) of the same molecule?
The TGI was greater than 100 µM.

With `Cc1ccc(S(=O)(=O)NCc2cccc([N+](=O)[O-])c2)cc1` as the molecule, how does the TGI (MOLT-4 leukemia) read?
The TGI was greater than 100 µM.

What about the TGI (RPMI-8226 leukemia) of the same molecule?
The TGI was greater than 100 µM.

What about the TGI (NCI-H226 lung) of the same molecule?
Its TGI is greater than 100 µM.

What about the TGI (SF-268 CNS) of the same molecule?
The TGI was greater than 100 µM.

What about the TGI (CAKI-1 renal) of the same molecule?
The TGI was greater than 100 µM.

What about the TGI (MALME-3M melanoma) of the same molecule?
Its TGI is greater than 100 µM.

What about the TGI (HCT-116 colon) of the same molecule?
Its TGI is greater than 100 µM.

And the TGI (SF-539 CNS)?
Its TGI is greater than 100 µM.

What about the TGI (OVCAR-5 ovarian) of the same molecule?
The TGI was greater than 100 µM.

For `CC1=C2[C@@H](c3ccccc3)C3C=CC2(C=C3C(F)(F)F)N(C(=O)NC2CCCCC2)C1=O` (stereo partly drawn), which TGI (MOLT-4 leukemia) is on record?
The TGI was greater than 100 µM.

And the TGI (SF-268 CNS)?
The TGI was greater than 100 µM.

What about the TGI (CAKI-1 renal) of the same molecule?
The TGI was greater than 100 µM.

What about the TGI (MALME-3M melanoma) of the same molecule?
The TGI was greater than 100 µM.

What about the TGI (HCT-116 colon) of the same molecule?
The TGI was greater than 100 µM.

And the TGI (SF-539 CNS)?
The TGI was greater than 100 µM.

What about the TGI (OVCAR-5 ovarian) of the same molecule?
The TGI was greater than 100 µM.

What about the TGI (UO-31 renal) of the same molecule?
Its TGI is greater than 100 µM.
